One data set deals with HCMV (strain AD169). In words: Inhibition of HCMV replication, ELISA assay (Hs-68 cells). Format: cell-based, Human Cytomegalovirus (HCMV). The settings on record: read-out: ELISA CMV EC50. The procedure, abridged:
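EC50 derived from % inhibition of viral replication, read as p28 late-protein ELISA signal (mAb UL99, peroxidase/OPD, 450 nm) on fixed cells. Read-out came 8 days post-infection at 37 °C in DMEM with 5% FBS plus compound, after 2 h adsorption of AD169 at MOI 0.01 PFU/cell onto near-confluent Hs-68 cells.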
In general terms: ELISA stands for enzyme-linked immunosorbent assay.

A short description of data set [1]: Inhibition of HCMV replication, plaque reduction assay (PRA, Hs-68 cells). The class given is cell-based, Human Cytomegalovirus (HCMV). The settings on record: human. In short, it runs like this: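 Hs-68 monolayers (80–90% confluent) were infected with ~50 PFU HCMV AD169 for 2 h at 37°, then given compound in DMEM/5% inactivated FBS, refreshed after 4 days and kept 4 more days. Plaques were counted after formaldehyde fixation and crystal violet staining. EC50 derives from percent plaque reduction versus untreated wells.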
For orientation: Plaques are areas of infected cells; plaque reduction assays count them against a control.

For a further data set, the system named is HSV-1 KOS. Description: Cutaneous HSV-1 infection in the SKH-1 hairless mouse model, oral administration. Format: in vivo. The settings on record: Human alphaherpesvirus 1, Group 1 Table 1 entries, tid for five days, commencing three hours post infection, in 0.03 N aqueous HCl, read-out: ED50, reduction of viral pathology. As for the experimental part:
In addition to the above results, certain Group 1 compounds have been tested against cutaneous HSV-1 infection in the SKH-1 hairless mouse model (P. H. Lee et al., supra). In this instance, viral pathology was monitored using a subjective scoring system and infection was initiated by spreading a viral inoculum (HSV-1 KOS, 7.3×10^7 PFU) over punctured skin.
Still furthermore, oral doses of Entry No.29 of Group 1 at 50 mg/kg/day and 100 mg/kg/day were active in the preceding mouse model when treatment was initiated at 65 h post inoculation. Also, topical treatment of cutaneous HSV-2 infections, namely HG-52 or the acyclovir resistant HSV-2 strain VK-1 (C. S. Crumpacker, New Engl. J. Med., 1989, 320, 293) infections, in the mouse model with the above noted 3% w/w formulation of Entry No. 29 was therapeutically effective, producing a 58 to 72% reduction of viral pathology.

The mark [2] stands for this setting: Human betaherpesvirus 5, AD169, Hs68, Group 1 Table 1 entries.
The mark [3] stands for this setting: Group 1 Table 1 entries, read-out: Cytotoxic at this concentration (footnote *, PRA CMV).
Where [4] appears, read: Human betaherpesvirus 5, AD169, Hs68, Group 1 Table 2 entries.
[5] abbreviates: Group 1 Table 2 entries, read-out: Cytotoxic at this concentration (footnote, PRA CMV).

Where two headings read alike, the source gives them in different places.

For orientation: EC50 means the midpoint of the concentration-response curve. On to `Nc1nc(-c2ccc(NC(=O)CNCCCc3ccccc3)cc2)cs1` [Example 3], for which the EC50 in the data set on HCMV (strain AD169) (setting [2]) was 1.8 µM. Moreover, the MCC at 192 h in data set [1] (setting [3]) turned out to be 14 µM. For `Nc1nc(-c2ccc(NC(=O)CCNCc3cccc(F)c3)cc2)cs1` [Example 4], the EC50 in the data set with HCMV (strain AD169) (setting [4]) was found to be 6.6 µM. Moreover, in data set [1] (setting [5]), the MCC at 192 h turned out to be 3.7 µM. `Nc1nc(-c2ccc(NC(=O)CCN(Cc3ccccc3)C(=O)C3CCCCC3)cc2)cs1` [Example 8]: the EC50 in the data set on HCMV (strain AD169) (setting [4]) was found to be 8.6 µM. The MCC at 192 h in data set [1] (setting [5]) came to 13 µM. In the case of `C[C@H](NCC(=O)Nc1ccc(-c2csc(N)n2)cc1)c1ccccc1` [Example 10], the concentration giving a half-maximal response (EC50) in the data set on HCMV (strain AD169) (setting [2]) was determined as 2.2 µM. In data set [1] (setting [3]), the MCC at 192 h stood at 30 µM.

In the case of `Nc1nc(-c2ccc(NC(=O)CCNC3Cc4ccccc4C3)cc2)cs1` [Example 10], the EC50 in the data set on HCMV (strain AD169) (setting [4]) stood at 7.5 µM. In addition, the MCC at 192 h in data set [1] (setting [5]) turned out to be 14 µM. As to `Nc1nc(-c2ccc(NC(=O)CCN(Cc3ccccc3)C(=O)OCc3ccccc3)cc2)cs1` [Example 16], in the data set on HCMV (strain AD169) (setting [4]), the EC50 came out at 7 µM. For the same compound, in data set [1] (setting [5]), the MCC at 192 h came to 8 µM. `CN(CC(=O)Nc1ccc(-c2csc(N)n2)cc1)C(=O)c1ccncc1` [Example 22]: the EC50 with HCMV (strain AD169) (setting [2]) worked out at 110 µM. Also, in data set [1] (setting [3]), the MCC at 192 h is 110 µM.

`Nc1nc(-c2ccc(NC(=O)CCNCC3CCCCC3)cc2)cs1` [Example 22]: the EC50 in the data set on HCMV (strain AD169) (setting [4]) was 4.8 µM. Further, the MCC at 192 h in data set [1] (setting [5]) stood at 6 µM. On to `CCCC(CCC)NCCC(=O)Nc1ccc(-c2csc(N)n2)cc1` [Example 23], for which, in the data set with HCMV (strain AD169) (setting [4]), the EC50 came to 4 µM. Moreover, the MCC at 192 h in data set [1] (setting [5]) was found to be 9 µM. In the case of `Nc1nc(-c2ccc(NC(=O)CN(Cc3ccccc3)C(=O)c3ccccn3)cc2)cs1` [Example 27], in the data set on HCMV (strain AD169) (setting [2]), the EC50 was 7 µM. The MCC at 192 h in data set [1] (setting [3]) was found to be 36 µM. For orientation: ED50 means the midpoint of the dose-response relation. As to `Nc1nc(-c2ccc(NC(=O)CN(Cc3ccccc3)C(=O)c3ccncc3)cc2)cs1` [Example 29], the EC50 with HCMV (strain AD169) (setting [2]) was found to be 12 µM. The ED50 in the data set on HSV-1 KOS came out at 56 mg/kg. As for `Nc1nc(-c2ccc(NC(=O)CN(Cc3ccccc3)C(=O)C3CCCC3)cc2)cs1` [Example 36], the EC50 with HCMV (strain AD169) (setting [2]) was 2.8 µM. In the data set with HSV-1 KOS, the ED50 was 51 mg/kg. `Nc1nc(-c2ccc(NC(=O)CN(Cc3ccncc3)C(=O)C3CCCCC3)cc2)cs1` [Example 49, N-{2-{{4-(2-amino-4-thiazolyl)phenyl}amino}-2-oxoethyl}-N-(4-pyridinylmethyl)cyclohexanecarboxamide]: the EC50 in the data set on HCMV (strain AD169) (setting [2]) worked out at 25 µM. Further, the ED50 with HSV-1 KOS was determined as 129 mg/kg. With `C[C@@H](c1ccccc1)N(CC(=O)Nc1ccc(-c2csc(N)n2)cc1)C(=O)c1ccncc1` [Example 58], the EC50 with HCMV (strain AD169) (setting [2]) amounted to 5.2 µM. Further, the ED50 in the data set with HSV-1 KOS came to 31 mg/kg. `Nc1nc(-c2ccc(NC(=O)CN(CC3CCCCC3)C(=O)C3CCCC3)cc2)cs1` [Example 63]: the EC50 in the data set on HCMV (strain AD169) (setting [2]) amounted to 2.2 µM. For the same compound, the MCC at 192 h in data set [1] (setting [3]) was determined as 21 µM. Turning to `Nc1nc(-c2ccc(NC(=O)CN(CCc3ccccn3)C(=O)C3CCCC3)cc2)cs1` [Example 79], in the data set on HCMV (strain AD169) (setting [2]), the 50% effective concentration (EC50) was 3.8 µM. For the compound `CC(C)(C)CN(CC(=O)Nc1ccc(-c2csc(N)n2)cc1)C(=O)C1CCCCC1` [Example 80], the EC50 with HCMV (strain AD169) (setting [2]) was 9.5 µM. With `CCCC(CCC)N(CC(=O)Nc1ccc(-c2csc(N)n2)cc1)C(=O)C1CCCCC1` [Example 82], in the data set with HCMV (strain AD169) (setting [2]), the EC50 was 8.1 µM. The MCC at 192 h in data set [1] (setting [3]) was 7 µM.

For the compound `Nc1nc(-c2ccc(NC(=O)CN(Cc3ccc(F)cc3)C(=O)c3ccncc3)cc2)cs1` [Example 84], in the data set on HCMV (strain AD169) (setting [2]), the EC50 amounted to 5.6 µM. Take `CC(C)(C)OC(=O)N(CC(=O)Nc1ccc(-c2csc(N)n2)cc1)Cc1ccccc1` [Example 85]: in the data set with HCMV (strain AD169) (setting [2]), the EC50 was 0.6 µM.

On to `C[C@@H](c1ccccc1)N(CC(=O)Nc1ccc(-c2csc(N)n2)cc1)C(=O)OC(C)(C)C` [Example 89], for which the EC50 in the data set on HCMV (strain AD169) (setting [2]) worked out at 0.9 µM.

Consider `CC(C)(C)OC(=O)N(CC(=O)Nc1ccc(-c2csc(N)n2)cc1)Cc1ccncc1` [Example 90], for which, in the data set with HCMV (strain AD169) (setting [2]), the EC50 is 3.5 µM. For `CC(C)(C)NC(=S)N(CC(=O)Nc1ccc(-c2csc(N)n2)cc1)Cc1ccccc1` [Example 93], the EC50 with HCMV (strain AD169) (setting [2]) was found to be 0.25 µM. The same measure, in the same setting: in the case of `Nc1nc(-c2ccc(NC(=O)CN(Cc3ccccc3)S(=O)(=O)c3ccccc3)cc2)cs1` [Example 97] it was greater than 5 µM.

For `CCC(CC)C(=O)N(CC(=O)Nc1ccc(-c2csc(N)n2)cc1)Cc1ccccc1` [Example 104], the EC50 in the data set with HCMV (strain AD169) (setting [2]) was determined as 1.9 µM. The MCC at 192 h in data set [1] (setting [3]) came to 18 µM. In the case of `CN(C)CCN(CC(=O)Nc1ccc(-c2csc(N)n2)cc1)C(=O)C1CCCCC1` [Example 140], the EC50 with HCMV (strain AD169) (setting [2]) was determined as 1.4 µM.

Source of the values: patent US6288091A, “Antiherpes virus compounds and methods for their preparation and use” (Boehringer Ingelheim Ltd., priority 1999, dated 2001).
